The values that follow are results of earlier work, collected in US20210330644A1, “COMBINATION THERAPY FOR TREATING METASTATIC PROSTATE CANCER” (Progenics Pharmaceuticals, Inc, priority 2018, published 2021).

SMILES strings stand for the structures.

The data set has as its system mCRPC.

Turning to `CNC(=O)c1ccc(N2C(=S)N(c3ccc(C#N)c(C(F)(F)F)c3)C(=O)C2(C)C)cc1F` [enzalutamide], the “proportion of patients with >50% decline in PSA from baseline” value (after progression under abiraterone therapy of any duration) was 30-51%. In addition, under “majority of data”, the “benefit in abiraterone-resistant patients” value is “limited benefit”.
